Patent US10150747B2, “Compounds for the treatment of hepatitis C” (BRISTOL-MYERS SQUIBB COMPANY, priority 2015, dated 2018)
Read-outs that look alike come from different tables or passages of the source.

Assays:
[1] = test system: genotype 1b (Con-1) HCV replicon in Huh-7 cells; test: HCV replicon luciferase assay (1b replicon); format: cell-based; settings: Hepatitis C virus
Procedure: The cell lines used to evaluate compounds consist of a human hepatocyte derived cell line (Huh-7) that constitutively expresses a genotype 1b (Con-1) HCV replicon or a genotype 1b (Con-1) HCV replicon with an asparagine replacing the cysteine at amino acid 316, or a genotype 2a (JFH-1) replicon, containing a Renilla luciferase reporter gene. These cells were maintained in Dulbecco's modified Eagle medium (DMEM) containing 10% FBS, 100 U/mL penicillin/streptomycin and 1.0 mg/mL G418.
HCV Replicon Luciferase Assay.
After 3 days incubation at 37° C., cells were analyzed for Renilla Luciferase activity using the EnduRen substrate (Promega cat #E6485) according to the manufacturer's directions. Briefly, the EnduRen substrate was diluted in DMEM and then added to the plates to a final concentration of 7.5 μM. The plates were incubated for at least 1 h at 37° C. then read on a Viewlux Imager (PerkinElmer) using a luminescence program.

[2] = target: HCV NS5B genotype 1b (Con1) (Hepatitis C virus genotype 1b (isolate Con1) (HCV), UniProt Q9WMX2); test: HCV NS5B RdRp enzyme assay (1b enzyme); format: biochemical; settings: genotype 1b NS5B enzyme
Chain of HCV NS5B genotype 1b (Con1) (Q9WMX2 2420-2992): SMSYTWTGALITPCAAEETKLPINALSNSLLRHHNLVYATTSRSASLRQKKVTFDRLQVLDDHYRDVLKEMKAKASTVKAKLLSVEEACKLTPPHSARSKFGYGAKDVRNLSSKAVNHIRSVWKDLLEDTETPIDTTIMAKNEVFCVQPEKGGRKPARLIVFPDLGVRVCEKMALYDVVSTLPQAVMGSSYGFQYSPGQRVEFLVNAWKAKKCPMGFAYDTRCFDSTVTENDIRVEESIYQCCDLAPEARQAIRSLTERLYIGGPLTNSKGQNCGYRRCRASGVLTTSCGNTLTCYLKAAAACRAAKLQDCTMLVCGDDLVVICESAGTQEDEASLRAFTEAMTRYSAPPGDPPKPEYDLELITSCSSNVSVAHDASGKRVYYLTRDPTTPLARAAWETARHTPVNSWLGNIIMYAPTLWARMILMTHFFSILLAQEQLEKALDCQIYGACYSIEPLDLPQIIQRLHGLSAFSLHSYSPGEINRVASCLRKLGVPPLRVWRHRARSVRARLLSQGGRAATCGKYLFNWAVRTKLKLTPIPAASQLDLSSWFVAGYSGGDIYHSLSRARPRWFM
Procedure: HCV NS5B RdRp Cloning, Expression, and Purification.
The cDNA encoding NS5B proteins of HCV genotype 1b (Con1), a genotype 1b variant with amino acid 316 mutated from cysteine to asparagine, and genotype 2a (JFH-1), were cloned into the pET21a expression vector. Each untagged protein was expressed with an 18 amino acid C-terminal truncation to enhance the solubility. The E. coli competent cell line BL21(DE3) was used for expression of the protein. Cultures were grown at 37° C. for ˜4 hours until the cultures reached an optical density of 2.0 at 600 nm. The cultures were cooled to 20° C. and induced with 1 mM IPTG. Fresh ampicillin was added to a final concentration of 50 μg/mL and the cells were grown overnight at 20° C.
The lysis buffer consisted of 20 mM Tris-HCl, pH 7.4, 500 mM NaCl, 0.5% triton X-100, 1 mM DTT, 1 mM EDTA, 20% glycerol, 0.5 mg/mL lysozyme, 10 mM MgCl2, 15 ug/mL deoxyribonuclease I, and Complete TM protease inhibitor tablets (Roche). After addition of the lysis buffer, frozen cell pellets were resuspended using a tissue homogenizer. To reduce the viscosity of the sample, aliquots of the lysate were sonicated on ice using a microtip attached to a Branson sonicator. The sonicated lysate was centrifuged at 100,000×g for 30 minutes at 4° C. and filtered through a 0.2 μm filter unit (Corning).
The protein was purified using two sequential chromatography steps: Heparin sepharose CL-6B and polyU sepharose 4B. The chromatography buffers were identical to the lysis buffer but contained no lysozyme, deoxyribonuclease I, MgCl2 or protease inhibitor and the NaCl concentration of the buffer was adjusted according to the requirements for charging the protein onto the column. Each column was eluted with a NaCl gradient which varied in length from 5-50 column volumes depending on the column type. […] The enzyme was aliquoted and stored at −80° C.
HCV NS5B RdRp Enzyme Assay.
An on-bead solid phase homogeneous assay was used in a 384-well format to assess NS5B inhibitors (WangY-K, Rigat K, Roberts S, and Gao M (2006) Anal Biochem, 359: 106-111). The biotinylated oligo dT12 primer was captured on streptavidin-coupled imaging beads (GE, RPNQ0261) by mixing primer and beads in 1× buffer and incubating at room temperature for three hours. Unbound primer was removed after centrifugation. The primer-bound beads were resuspended in 3× reaction mix (20 mM Hepes buffer, pH 7.5, dT primer coupled beads, poly A template, ^3H-UTP, and RNAse inhibitor (Promega N2515)). Compounds were serially diluted 1:3 in DMSO and aliquoted into assay plates. Equal volumes (5 μL) of water, 3× reaction mix, and enzyme in 3× assay buffer (60 mM Hepes buffer, pH 7.5, 7.5 mM MgCl2, 7.5 mM KCl, 3 mM DTT, 0.03 mg/mL BSA, 6% glycerol) were added to the diluted compound on the assay plate. Final concentration of components in 384-well assay: 0.36 nM template, 15 nM primer, 0.29 μM ^3H-UTP (0.3 μCi), 1.6 U/4 RNAse inhibitor, 7 nM NS5B enzyme, 0.01 mg/mL BSA, 1 mM DTT, and 0.33 μg/μL beads, 20 mM Hepes buffer, pH 7.5, 2.5 mM MgCl2, 2.5 mM KCl, and 0.1% DMSO.
Reactions were allowed to proceed for 24 hours at 30° C. and terminated by the addition of 50 mM EDTA (5 μL). After incubating for at least 15 minutes, plates were read on an Amersham LEADseeker multimodality imaging system.
IC50 values for compounds were determined using ten different [I]. IC50 values were calculated from the inhibition using the four-parameter logistic formula y=A+((B−A)/(1+((C/x)^D))), where A and B denote minimal and maximal % inhibition, respectively, C is the IC50, D is hill slope and x represents compound concentration.

HCV = settings: extended dosing of the combination regimens with interferon and ribavirin; cited from earlier work
[3] = 72 h, genotype 1b replicon, Huh-7, Renilla luciferase, 3 days incubation, read-out: EC50

| Compound | EC50 [1, 3] | IC50 [2] | EC50 ([1]; Huh-7, 72 h) | hepatic toxicity (HCV) |
| --- | --- | --- | --- | --- |
| CNC(=O)c1c(-c2ccc(F)cc2)oc2cc(OCC(F)(F)F)c(-c3cccc(C(=O)NC4(C#N)CC4)c3)cc12 [Example 8, 5-(3-((1-Cyanocyclopropyl)carbamoyl)phenyl)-2-(4-fluorophenyl)-N-methyl-6-(2,2,2-trifluoroethoxy)benzofuran-3-carboxamide] | 20 nM | 4.97 nM |  |  |
| CCOc1cc2oc(-c3ccc(F)cc3)c(C(=O)NC)c2cc1-c1ccc(OC)c(C(=O)NC2(c3ncccn3)CC2)c1 [Example 12, 6-Ethoxy-2-(4-fluorophenyl)-5-(4-methoxy-3-((1-(pyrimidin-2-yl)cyclopropyl)carbamoyl)phenyl)-N-methylbenzofuran-3-carboxamide] | 4.2 nM | 1.89 nM |  |  |
| CNC(=O)c1c(-c2ccc(F)cc2)oc2cc(OCC(F)(F)F)c(-c3cccc(C(=O)NC(C)(C)C#N)c3)cc12 [Example 10, 5-(3-((2-Cyanopropan-2-yl)carbamoyl)phenyl)-2-(4-fluorophenyl)-N-methyl-6-(2,2,2-trifluoroethoxy)benzofuran-3-carboxamide] | 5.01 nM | 3.02 nM |  |  |
| [2H]C([2H])([2H])Oc1ccc(-c2cc3c(C(=O)NC)c(-c4ccc(F)cc4)oc3cc2OCC)cc1C(=O)NC(C)(C)c1ncsn1 [Example 33, 5-(3-((2-(1,2,4-thiadiazol-3-yl)propan-2-yl)carbamoyl)-4-(methoxy-d3)phenyl)-6-ethoxy-2-(4-fluorophenyl)-N-methylbenzofuran-3-carboxamide] | 2.49 nM | 2.04 nM |  |  |
| CNC(=O)c1c(-c2ccc(F)cc2)oc2cc(OCC(F)F)c(-c3cccc(C(=O)NC4(c5ncccn5)CC4)c3)cc12 [Example 20, 6-(2,2-difluoroethoxy)-2-(4-fluorophenyl)-N-methyl-5-(3-((1-(pyrimidin-2-yl)cyclopropyl)carbamoyl)phenyl)benzofuran-3-carboxamide] |  | 4.54 nM | 6.79 nM |  |
| CNC(=O)c1c(-c2ccc(F)cc2)oc2cc(OC(C)C)c(-c3ccc(OC)c(C(=O)NC(C)(C)c4ncon4)c3)cc12 [Example 23, 5-(3-((2-(1,2,4-Oxadiazol-3-yl)propan-2-yl)carbamoyl)-4-methoxyphenyl)-2-(4-fluorophenyl)-6-isopropoxy-N-methylbenzofuran-3-carboxamide] | 10 nM | 7.14 nM |  |  |
| [2H]C([2H])([2H])Oc1ccc(-c2cc3c(C(=O)NC)c(-c4ccc(F)cc4)oc3cc2OCC)cc1C(=O)NC(C)(C)C#N [Example 28, 5-(3-((2-cyanopropan-2-yl)carbamoyl)-4-(methoxy-d3)phenyl)-6-ethoxy-2-(4-fluorophenyl)-N-methylbenzofuran-3-carboxamide] | 2.01 nM | 2.04 nM |  |  |
| CCOc1cc2oc(-c3ccc(F)cc3)c(C(=O)NC)c2cc1-c1cccc(C(=O)NC2(c3ncccn3)CC2)c1 [Example 7, 6-Ethoxy-2-(4-fluorophenyl)-N-methyl-5-(3-((1-(pyrimidin-2-yl)cyclopropyl)carbamoyl)phenyl)benzofuran-3-carboxamide] | 10 nM | 5.78 nM |  |  |
| CNC(=O)c1c(-c2ccc(F)cc2)oc2cc(OCC(F)(F)F)c(-c3cccc(C(=O)NC4(c5ncccn5)CC4)c3)cc12 [Example 1, 2-(4-Fluorophenyl)-N-methyl-5-(3-((1-(pyrimidin-2-yl)cyclopropyl)carbamoyl)phenyl)-6-(2,2,2-trifluoroethoxy)benzofuran-3-carboxamide] | 10 nM | 7.42 nM |  |  |
| CNC(=O)c1c(-c2ccc(F)cc2)oc2cc(OCC(F)(F)F)c(-c3ccc(OC)c(C(=O)NC(C)(C)c4ncon4)c3)cc12 [Example 18, 5-(3-((2-(1,2,4-oxadiazol-3-yl)propan-2-yl)carbamoyl)-4-methoxyphenyl)-2-(4-fluorophenyl)-N-methyl-6-(2,2,2-trifluoroethoxy)benzofuran-3-carboxamide] | 2.85 nM | 2.83 nM |  |  |
| CCCOc1cc2oc(-c3ccc(F)cc3)c(C(=O)NC)c2cc1-c1ccc(OC)c(C(=O)NC(C)(C)c2ncon2)c1 [Example 25, 5-(3-((2-(1,2,4-oxadiazol-3-yl)propan-2-yl)carbamoyl)-4-methoxyphenyl)-2-(4-fluorophenyl)-N-methyl-6-propoxybenzofuran-3-carboxamide] | 6.23 nM | 2.48 nM |  |  |
| CNC(=O)c1c(-c2ccc(F)cc2)oc2cc(N(CCO)S(C)(=O)=O)c(C3CC3)cc12 [HCV-796] |  |  |  | hepatic toxicity |
